# Data reported in paper PMC12164272, “Ruthenium(II) Polypyridyl Complexes Containing COUBPY Ligands as Potent Photosensitizers for the Efficient Phototherapy of Hypoxic Tumors” (Journal of the American Chemical Society, 2025).
# Like-named read-outs stand apart in the source and are kept apart here.
# How the values were obtained:
# CT-26 cancer cells = test: (Photo)cytotoxicity in 2D monolayer cells under normoxia (21% O2), resazurin assay; format: cell-based, murine; conditions: for Phototherapeutic index (PI) = IC50(dark)/IC50(light): normoxia; for IC50: Mus musculus
# Procedure: To that end, cells were incubated for 4 h with increasing concentrations of the compounds, and after refreshing the medium, they were either illuminated or kept in the dark. […] The phototoxic index (PI), defined as the ratio of dark to light IC50 values, was used to quantify the phototherapeutic efficiency of the tested compounds. […] Using a well-by-well monochromatic LED device, cells were irradiated with green (540 nm, 40 min), yellow (595 nm, 1 h), red (620 nm, 1 h), deep-red (645 nm, 1 h), far-red (670 nm, 1 h), or NIR (740 nm, 1 h) light, with fluences ranging from 3.4 J/cm^2 (595 nm) to 13.5 J/cm^2 (670 nm).
# In vitro (photo)cytotoxicity determination of Ru-COUBPY PSs
# CT-26 cells were cultured in Dulbecco’s modified Eagle medium (DMEM) (Gibco)
# supplemented with 10% fetal calf serum (Gibco) and 2 mM L-glutamine.
# the corresponding culture medium was supplemented with 100 U·mL−1 penicillin streptomycin
# mixture (Gibco) and cells were maintained in a humidified atmosphere at 37 °C and 5 % of
# (Photo)cytotoxicity evaluation in 2D monolayer cells under normoxia (21% O2)
# The (photo)cytotoxicity of the test compounds under normoxia (21% O2) was assessed by a
# fluorometric cell viability assay using Resazurin (Acros Organics). CT-26 cells were seeded in
# triplicate in 96-well plates at a density of 4000 cells/well in complete medium in a final volume
# of 100 μL/well. After 24 h, cells were treated with increasing concentrations of the test
# compounds using serial dilutions of the test compounds in complete culture medium (DMSO
# ≤1 %) at final concentrations in the range of 0 to 250 μM (100 μL/well), followed by a 4-h
# incubation at 37 °C, 5% CO2 in the dark. The medium containing the PS was then replaced with
# fresh medium (100 μL/well) and plates were irradiated for 1 h at 37 °C, 0 % CO2 with 540 nm
# (spectral half-width: 32 nm, 40 min, 3.75 mW cm−2, 9.0 J cm−2), 595 nm (spectral half-width:
# mW cm−2, 6.7 J cm−2), 645 nm (spectral half-width: 32 nm, 60 min, 2.50 mW cm−2, 9.0 J cm−2),
# 670 nm (spectral half-width: 32 nm, 60 min, 3.75 mW cm−2, 13.5 J cm−2) or 740 nm (spectral
# half-width: 32 nm, 60 min, 3.50 mW cm−2, 12.6 J cm−2) light using a LED multi-well plate
# photo-irradiation system (Atlas Photonics Lumos Bio). To evaluate the cytotoxicity of the test
# compounds in the dark, three additional plates of treated cells were kept in the dark for 1 h at
# 37 °C, 0 % CO2. Cells were then kept in the incubator (37 °C, 5 % CO2) over a recovery period
# of 44 h. Next, the medium was replaced with complete medium containing Resazurin (0.2
# mg/mL, 100 μL/well), followed by a 4-h incubation at 37 °C, 5 % CO2. Finally, the fluorescence
# signal of the Resorufin product was measured (ex = 540 nm, em = 590 nm) using a Infinite
# 200 PRO Microplate Reader from TECAN. IC50 values were then calculated based on the
# inhibitory rate curves using the following equation (6)
# where I represent the percentage inhibition of viability observed, Imax is the maximal inhibitory
# effect, IC50 is the concentration that inhibits 50% of maximal growth, C is the concentration of
# the treatment and n is the slope of the semi-logarithmic dose-response sigmoidal curves. The
# non-linear fitting was performed using GraphPad Prism software. All experiments were
# performed in three independent studies with triplicate points per concentration level.
# [1] = cited from earlier work
smiles,measurement,setting,value
"C=CC1=C(C)c2cc3[nH]c(cc4nc(cc5[nH]c(cc1n2)c(C)c5CCC(=O)O)C(CCC(=O)O)=C4C)c(C)c3C=C [PpIX, Protoporphyrin IX]",Phototherapeutic index (PI) = IC50(dark)/IC50(light),CT-26 cancer cells; 540 nm,>312
same,Phototherapeutic index (PI) = IC50(dark)/IC50(light),CT-26 cancer cells; 595 nm,>250
same,Phototherapeutic index (PI) = IC50(dark)/IC50(light),CT-26 cancer cells; 620 nm,>151
same,Phototherapeutic index (PI) = IC50(dark)/IC50(light),CT-26 cancer cells; 645 nm,>588
same,Phototherapeutic index (PI) = IC50(dark)/IC50(light),CT-26 cancer cells; 670 nm,>129
same,Phototherapeutic index (PI) = IC50(dark)/IC50(light),CT-26 cancer cells; 740 nm,>50
same,IC50,"CT-26 cancer cells; CT26, 540 nm, 9.0 J cm–2, normoxia 21% O2",0.32 ± 0.09 µM
same,IC50,"CT-26 cancer cells; CT26, 595 nm, 3.4 J cm–2, normoxia 21% O2",0.4 ± 0.01 µM
same,IC50,"CT-26 cancer cells; CT26, 620 nm, 6.7 J cm–2, normoxia 21% O2",0.66 ± 0.21 µM
same,IC50,"CT-26 cancer cells; CT26, 645 nm, 9.0 J cm–2, normoxia 21% O2",0.17 ± 0.21 µM
same,IC50,"CT-26 cancer cells; CT26, 670 nm, 13.5 J cm–2, normoxia 21% O2",0.77 ± 0.2 µM
same,IC50,"CT-26 cancer cells; CT26, 740 nm, 12.6 J cm–2, normoxia 21% O2",2.1 ± 0.2 µM
same,IC50,"CT-26 cancer cells; CT26, 4 h, dark, normoxia 21% O2, 4 h incubation",> 100 µM
[Cl][Ru][Cl].c1ccc(-c2ccccn2)nc1.c1ccc(-c2ccccn2)nc1.c1ccc(-c2ccccn2)nc1 [[Ru(bpy)3]Cl2],"reference singlet oxygen quantum yield ΦΔ,ref",[1]; aerated CH3CN,0.57
CN(C)c1ccc2nc3ccc(=[N+](C)C)cc-3sc2c1 [methylene blue],"reference singlet oxygen quantum yield ΦΔ,ref",[1]; aerated DCM,0.57
